Among the test systems are OVCAR-4 ovarian; RXF 393 renal; A549 NSCLC; RPMI-8226 leukemia; OVCAR-8 ovarian; SK-MEL-5 melanoma; OVCAR-5 ovarian; SN12C renal; EKVX NSCLC; MCF7 breast.
Holding throughout (test): NCI-60 cell line screen, 48 h

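Assay format: 96-well plates, 48-hour exposure. GI50 is the concentration that inhibits growth by half. TGI marks complete inhibition of growth.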 A value given as a limit tells only on which side of the number the result lay.

On to `NC1=NS(=O)(=O)Nc2nc(-c3cccs3)[nH]c21`, for which the TGI in the experiment on OVCAR-4 ovarian, with RXF 393 renal, in the experiment with A549 NSCLC, with RPMI-8226 leukemia, in the experiment with OVCAR-8 ovarian and in the experiment on SK-MEL-5 melanoma was over 100 µM each time. Besides, the TGI with OVCAR-5 ovarian and in the experiment with SN12C renal was over 100 µM in each case.

Turning to `C=C1C(=O)OC2/C=C(\C)CC(O)/C=C(/CO)CC(OC(=O)/C(C)=C/C)C12` (centres undefined), the TGI in the experiment with OVCAR-4 ovarian was 319 µM; in the experiment on EKVX NSCLC, 59.1 µM; in the experiment with RXF 393 renal, 44.5 µM; in the experiment on A549 NSCLC, 451 µM; with RPMI-8226 leukemia, 17.4 µM; in the experiment with OVCAR-8 ovarian it was 122 µM. The TGI with SK-MEL-5 melanoma turned out to be 44.1 µM; in the experiment with OVCAR-5 ovarian, 297 µM; in the experiment on SN12C renal, 437 µM; with MCF7 breast it was 68.2 µM.

Consider `O=C(/N=C/c1c(O)c2ccccc2oc1=O)NC1CCCCC1`, for which the TGI in the experiment on OVCAR-4 ovarian, in the experiment on EKVX NSCLC, in the experiment on RXF 393 renal, in the experiment on A549 NSCLC, in the experiment on RPMI-8226 leukemia and in the experiment with OVCAR-8 ovarian was over 100 µM throughout. The TGI with SK-MEL-5 melanoma, in the experiment with OVCAR-5 ovarian and with SN12C renal was over 100 µM each time.

On to `CC(O)=NC(Cc1ccc2ccccc2c1)C(O)=NC(Cc1ccc(Cl)cc1)C(O)=NC(Cc1c[nH]c2ccccc12)C(O)=NC(CO)C(O)=NC(Cc1ccc(O)cc1)C(O)=NC(CCCN=C(N)N)C(O)=NC(CC(C)C)C(O)=NC(CCCN=C(N)N)C(=O)N1CCCC1C(O)=NC(C)C(=N)O` (centres undefined), for which the TGI in the experiment on OVCAR-4 ovarian is over 100 µM; in the experiment with EKVX NSCLC, over 100 µM; in the experiment with RXF 393 renal, 92.2 µM; with A549 NSCLC, over 100 µM; in the experiment with RPMI-8226 leukemia, over 100 µM; with OVCAR-8 ovarian, over 100 µM. Also, the TGI in the experiment with SK-MEL-5 melanoma, in the experiment on OVCAR-5 ovarian, in the experiment with SN12C renal and in the experiment on MCF7 breast was over 100 µM each time.

Turning to `Cc1onc(-c2c(F)cccc2Cl)c1C(=O)N[C@@H]1C(=O)N2[C@@H]1SC(C)(C)[C@@H]2C(=O)O`, the TGI with OVCAR-4 ovarian, in the experiment with EKVX NSCLC, in the experiment on RXF 393 renal, in the experiment on A549 NSCLC, with RPMI-8226 leukemia and in the experiment on OVCAR-8 ovarian was over 100 µM throughout. For the same molecule, the TGI with SK-MEL-5 melanoma, in the experiment with OVCAR-5 ovarian, in the experiment with SN12C renal and in the experiment with MCF7 breast was over 100 µM each time.

Regarding `CC(C)Cc1cccc(C(C)C)c1NC(=O)CCC(=O)N/N=C1\C(=N/NC(=O)CCC(=O)Nc2c(C(C)C)cccc2C(C)C)C(c2ccc3c(c2)OCO3)Oc2ccccc21` (centres undefined), the TGI with OVCAR-4 ovarian, in the experiment with EKVX NSCLC, with RXF 393 renal, with A549 NSCLC, in the experiment with RPMI-8226 leukemia and in the experiment with OVCAR-8 ovarian was over 100 µM each time. In addition, the TGI in the experiment with SK-MEL-5 melanoma, with OVCAR-5 ovarian and in the experiment on SN12C renal was over 100 µM each time.

For the molecule `FC(F)(F)C1=NC(=NNc2nnc(-c3ccccc3)c(-c3ccccc3)n2)N=C(C(F)(F)F)C1`, the TGI in the experiment with OVCAR-4 ovarian, in the experiment with EKVX NSCLC, in the experiment with RXF 393 renal, with A549 NSCLC, in the experiment with RPMI-8226 leukemia and in the experiment on OVCAR-8 ovarian was over 100 µM each time. In addition, the TGI in the experiment on SK-MEL-5 melanoma is over 66 µM; in the experiment on OVCAR-5 ovarian, over 100 µM; with SN12C renal it was over 100 µM; with MCF7 breast, over 100 µM.

Turning to `CS(=O)(=O)OCc1c(O)c2c(c(O)c1COS(C)(=O)=O)C(=O)C=CC2=O`, the TGI in the experiment with OVCAR-4 ovarian, with EKVX NSCLC, with A549 NSCLC, in the experiment with RPMI-8226 leukemia, with OVCAR-8 ovarian and in the experiment with SK-MEL-5 melanoma was over 100 µM in each case. Moreover, the TGI in the experiment with OVCAR-5 ovarian and in the experiment on SN12C renal was over 100 µM throughout.

With `O=c1cc(-c2nc3ccccc3[nH]2)[nH]c2nc(-c3nc4ccccc4[nH]3)cc(-c3ccc(Cl)cc3)c12`, the TGI is 95.4 µM in the experiment with OVCAR-4 ovarian; over 100 µM in the experiment on EKVX NSCLC; 35.8 µM in the experiment with RXF 393 renal; 87.2 µM in the experiment on A549 NSCLC; 44 µM in the experiment on RPMI-8226 leukemia; over 100 µM in the experiment on OVCAR-8 ovarian. Moreover, the TGI in the experiment on SK-MEL-5 melanoma came to 30.9 µM; in the experiment on OVCAR-5 ovarian it was 54.3 µM; in the experiment on SN12C renal, 46.9 µM; with MCF7 breast, 36.3 µM.

Regarding `CN(C)CCC(C(=O)C(C)(C)C)c1ccccn1` (centres undefined), the TGI with OVCAR-4 ovarian, in the experiment with EKVX NSCLC, in the experiment on RXF 393 renal, with A549 NSCLC, in the experiment on RPMI-8226 leukemia and in the experiment with OVCAR-8 ovarian was over 100 µM each time. Moreover, the TGI in the experiment on SK-MEL-5 melanoma, in the experiment on OVCAR-5 ovarian, in the experiment on SN12C renal and in the experiment on MCF7 breast was over 100 µM each time.

Take `C[C@H](O)C(=O)SC[C@H](NC(=O)CC[C@@H](N)C(=O)O)C(=O)NCC(=O)O`: the TGI with OVCAR-4 ovarian, in the experiment with EKVX NSCLC, in the experiment with RXF 393 renal, in the experiment on RPMI-8226 leukemia, in the experiment with OVCAR-8 ovarian and with SK-MEL-5 melanoma was over 100 µM in each case. Also, the TGI in the experiment on OVCAR-5 ovarian and in the experiment with SN12C renal was over 100 µM throughout.

`COc1c2ccoc2c(S(=O)(=O)Nc2ccc(Cl)cc2)c2oc(C)cc(=O)c12`: the TGI was over 67.2 µM with OVCAR-4 ovarian; over 100 µM in the experiment with EKVX NSCLC; over 89.1 µM in the experiment with RXF 393 renal; over 100 µM with A549 NSCLC; over 100 µM in the experiment with RPMI-8226 leukemia; over 100 µM in the experiment with OVCAR-8 ovarian. Moreover, the TGI with SK-MEL-5 melanoma, with OVCAR-5 ovarian, with SN12C renal and in the experiment with MCF7 breast was over 100 µM in each case.

Regarding `COc1ccc(-n2cc(-c3ccc(OC)c(OC)c3)nc2SCc2ccccc2)cc1Cl`, the GI50 in the experiment on OVCAR-4 ovarian was 20.1 µM; in the experiment on EKVX NSCLC, 13.8 µM; in the experiment with RXF 393 renal, 16.9 µM; in the experiment with A549 NSCLC, 21.3 µM; with RPMI-8226 leukemia, 4.38 µM; in the experiment with OVCAR-8 ovarian, 25.9 µM. Moreover, the GI50 with SK-MEL-5 melanoma was 5.78 µM; with SN12C renal it was 38.1 µM; with MCF7 breast, 24 µM. Further, the TGI in the experiment on OVCAR-4 ovarian is over 100 µM; in the experiment with EKVX NSCLC, 64.7 µM; in the experiment on RXF 393 renal, 82 µM; in the experiment with A549 NSCLC, over 100 µM; in the experiment on RPMI-8226 leukemia, 20 µM; in the experiment with OVCAR-8 ovarian it was over 100 µM. The TGI in the experiment with SK-MEL-5 melanoma was 18.6 µM; with SN12C renal, over 100 µM; in the experiment with MCF7 breast, over 100 µM.

Take `ClCC1(CCl)COC1`: the TGI with OVCAR-4 ovarian, with RXF 393 renal, with A549 NSCLC, with OVCAR-8 ovarian, in the experiment with SK-MEL-5 melanoma and in the experiment with SN12C renal was over 100 µM in each case. This molecule had a TGI in the experiment with MCF7 breast of over 100 µM.

Consider `Oc1ccc2ccccc2c1Cc1c(O)ccc2ccccc12`, for which the TGI amounted to 30.6 µM in the experiment on OVCAR-4 ovarian; 32.6 µM in the experiment on EKVX NSCLC; 36 µM with RXF 393 renal; 39.9 µM in the experiment on A549 NSCLC; 40.4 µM in the experiment with RPMI-8226 leukemia; 36.9 µM with OVCAR-8 ovarian. Besides, the TGI with SK-MEL-5 melanoma stood at 32.1 µM; in the experiment on OVCAR-5 ovarian, 33.2 µM; with SN12C renal it was 34.6 µM; in the experiment on MCF7 breast, 53.9 µM.

For `CCCC(=O)OCC(O)CO` (centres undefined), the TGI in the experiment on OVCAR-4 ovarian, with RXF 393 renal, with A549 NSCLC, in the experiment on RPMI-8226 leukemia, with OVCAR-8 ovarian and in the experiment on SK-MEL-5 melanoma was over 5000 µM in each case. Besides, the TGI with OVCAR-5 ovarian is 4700 µM; with SN12C renal, over 5000 µM.

With `C[C@]12CC[C@H](O)CC1=CC[C@@H]1[C@@H]2CC[C@]2(C)C(=O)CC[C@@H]12`, the TGI in the experiment on OVCAR-4 ovarian, with EKVX NSCLC, with RXF 393 renal, in the experiment on A549 NSCLC, in the experiment on RPMI-8226 leukemia and in the experiment on OVCAR-8 ovarian was over 100 µM throughout. In addition, the TGI with SK-MEL-5 melanoma, with OVCAR-5 ovarian, in the experiment with SN12C renal and in the experiment with MCF7 breast was over 100 µM each time.

Take `CO[C@]12C[C@H](CNC(=O)c3cc(Br)c(Br)[nH]3)O[C@H]1NC(=O)N2`: the TGI in the experiment with OVCAR-4 ovarian, with EKVX NSCLC, in the experiment on A549 NSCLC, in the experiment with RPMI-8226 leukemia, in the experiment with OVCAR-8 ovarian and in the experiment with SK-MEL-5 melanoma was over 100 µM throughout. Besides, the TGI in the experiment on OVCAR-5 ovarian, in the experiment with SN12C renal and in the experiment with MCF7 breast was over 100 µM each time.
